Measured values: patent US7550469B2, “Heterocyclic amide derivatives and their use as dopamine D3 receptor ligands” (Aventis Pharmaceuticals Inc., priority 2001, dated 2009)
Like-named read-outs stand apart in the source and are kept apart here.

Biological target: T1, cloned human dopamine D3 receptors (Homo sapiens, UniProt P35462)
T1 construct: expressed in transfected cells; membrane homogenate
Assay: [N-Methyl-3H]Spiroperidol binding to cloned human dopamine D3 receptors (Protocol 1)
From the text: [N-Methyl-^3H]Spiroperidol Binding to Cloned Human Dopamine D3 Receptors
This assay measures the in vitro activity of compounds on cloned human dopamine (D3) receptors and predicts the direct dopamine-blocking properties of putative neuropsychiatric agents at human dopamine D3 receptors.
The D3 gene was isolated from a human striatal cDNA library (Stratagene). The gene was sequenced and sub-cloned into the expression vector RC/RSV (Invitrogen). CHO (Chinese Hamster Ovary) cells were stably transfected with 10 μg of the D3/RSV plasmid using the DOTAP method from Boehringer Mannheim and 72 clones that were G418 resistant were isolated. Using mRNA and binding displacement data a single high expressing clone was identified. This clone was then grown in large batches for the purpose of developing a 96 well format assay.
• 1. One plate (10 cm) with approximately 2-3 million D3 cells per plate is incubated with 1 ml of Trypsin-EDTA at room temperature for ˜2 min or until cells have lifted off plates. Four ml of Ham's F12+10% Fetal Bovine Serum+1% Penicillin/Streptomycin+G418 (400 μg/ml) medium are added to resuspend cells and 1 ml of this is added to each large plate (15 cm) containing 19 ml of the-same medium as mentioned above. • 2. The 5 large plates are incubated at 37° C.+5% CO2 for ˜3 days or until the cells are confluent. • 3. After these plates are confluent, they are split into 10 large plates. Medium is aspirated off, 2 ml of Trypsin-EDTA are added to each plate and plates are incubated at RT for 2 min or until cells have lifted off the plate. Eight ml of the F12 medium (same medium as #1 above) are added to each plate (10 ml total) to resuspend the cells and 5 ml are transferred to the 2 new plates containing 15 ml of the F12 media. • 4. The 10 large plates are incubated at 37° C.+5% CO2 for ˜2 days or until the cells are confluent. • 5. The 10 large plates are split into 60 large plates (using Trypsin-EDTA as #3 except 4 ml of F12 medium are added to resuspend cells and 1 ml is aliquoted to 6 new plates containing 19 ml of F12 medium each). • 6. Plates are incubated at […]+5% CO2 for ˜3 days or until cell are confluent. • 7. The 60 large plates are then split into 60 roller bottles (100-150 million cells/bottle). Medium is aspirated off, 2 ml of Trypsin-EDTA are added to each plate and incubated at RT for ˜2 minutes or until cells have lifted off plates. Eight ml of F12 medium are added to each plate to resuspend cells and the entire 10 ml are added to 1 roller bottle containing 90 ml of the F12 medium. • 8. The 60 roller bottles are immediately placed on their sides and transferred to the roller bottle incubator. They are incubated at 37° C.+5% CO2 for ˜3-5 days. Cells are spun at 30-40% motor speed in the Forma incubator. • 9. Medium is poured off and cells are washed 2× in PBS. • 10. Cells are then scraped off in 20 ml of PBS and the bottles are rinsed again with 5 ml of PBS to remove any remaining cells. Cells are stored on ice before membrane preparation. • 11. The yield for 60 D3 roller bottles has varied from ˜260-500 mg. • Note: All tissue culture reagents are from Gibco-BRL. C. Membrane Preparation
The cells are harvested into 250 ml centrifuge tubes with 100 volumes of cold phosphate buffered saline (PBS) and spun down (1200×G for 10 min at 4° C.). The medium is removed and 100 ml PBS are added to each centrifuge tube, cells are resuspend and spun down again. The PBS is removed and the final pellet is homogenized in an appropriate volume of 10% DMSO with a polytron on ice at a medium setting.
1. 0.5M Tris Buffer, pH 7.7 • a) 44.4 g Tris HCl 26.5 g Tris Base q.s. to 1 Liter (0.5 M Tris buffer, pH 7.7 at 37° C.) • b) make a 1:10 dilution in distilled H2O (0.05 M. Tris buffer, pH 7.7) 2. Tris Buffer Containing Physiological Salts • a) Stock buffer • NaCl 7.014 g • KCl 0.372 g • CaCl2 0.222 g • MgCl2 0.204 g • q.s. To 100 ml with 0.5 M. Tris Buffer • b) Dilute 1:10 in distilled H2O […]

[1] = the 23rd table, read-out: D3 Ki
[2] = the 17th table, read-out: D3 Ki
[3] = the 24th table, read-out: D3 Ki
[4] = the 18th table, read-out: D3 Ki

T1 sequence (P35462 whole entry): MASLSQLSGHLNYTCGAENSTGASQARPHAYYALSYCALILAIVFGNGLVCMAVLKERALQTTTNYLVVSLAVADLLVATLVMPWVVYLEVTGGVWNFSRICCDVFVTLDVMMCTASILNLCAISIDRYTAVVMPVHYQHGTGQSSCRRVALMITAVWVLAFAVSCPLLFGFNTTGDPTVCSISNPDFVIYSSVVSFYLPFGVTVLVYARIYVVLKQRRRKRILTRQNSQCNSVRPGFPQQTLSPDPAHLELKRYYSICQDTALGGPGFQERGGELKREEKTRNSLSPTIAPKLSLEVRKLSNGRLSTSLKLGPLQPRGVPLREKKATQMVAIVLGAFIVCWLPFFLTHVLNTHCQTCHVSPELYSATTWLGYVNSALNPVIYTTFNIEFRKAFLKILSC

CC1(C)C(CNC(=O)C2CC2c2ccccc2)C1CN1CCN(c2csc3cc(C(F)(F)F)ccc23)CC1 (mixture of isomers) [compound 826283]
Ki (read-out: D3K1): 0.0068 µM

CC1CCCCN1CCCNC[C@@H]1C[C@H]1CN1CCN(c2csc3cc(C(F)(F)F)ccc23)CC1 (mixture of isomers) [compound 832277]
Ki [1]: 0.0294 µM

CCC1CCCC1NC[C@@H]1C[C@H]1CN1CCN(c2csc3cc(C(F)(F)F)ccc23)CC1 (mixture of isomers) [compound 832278]
Ki [1]: 0.019 µM

c1cc2onc(C3CCN(CC4CC4CN4CCC(c5noc6ccsc56)CC4)CC3)c2s1 (racemic) [831205DA]
Ki [1]: 0.00638 µM

c1ccc(OCCNCC2CC2CN2CCC(c3noc4ccsc34)CC2)cc1 (racemic) [832296FH]
Ki [1]: 0.126 µM

Clc1ccc(CN2CCN(CC3CC3CN3CCC(c4noc5ccsc45)CC3)CC2)cc1Cl (racemic) [832297GW]
Ki [1]: 0.393 µM

OC1CCC(NCC2CC2CN2CCN(c3csc4cc(C(F)(F)F)ccc34)CC2)CC1 (racemic) [832390FH]
Ki [1]: 0.0218 µM

O=C(c1ccc(F)cc1)N(Cc1ccccc1)CC1CC1CN1CCCN(c2csc3cc(F)ccc23)CC1 (racemic) [compound 830393]
Ki [2]: 0.0218 µM

COc1ccc(C(=O)N(Cc2ccccc2)CC2CC2CN2CCCN(c3csc4cc(F)ccc34)CC2)cc1 (racemic) [compound 830394]
Ki [2]: 0.0107 µM

CCCCc1ccc(C(=O)N(Cc2ccccc2)CC2CC2CN2CCCN(c3csc4cc(F)ccc34)CC2)cc1 (racemic) [compound 830395]
Ki [2]: 0.0276 µM

COc1cc(OC)cc(C(=O)N(Cc2ccccc2)CC2CC2CN2CCCN(c3csc4cc(F)ccc34)CC2)c1 (racemic) [compound 830396]
Ki [2]: 0.0165 µM

O=C(c1ccc(-c2ccccc2)cc1)N(Cc1ccccc1)CC1CC1CN1CCCN(c2csc3cc(F)ccc23)CC1 (racemic) [compound 830397]
Ki [2]: 0.0554 µM

O=C(c1cc2ccccc2s1)N(Cc1ccccc1)CC1CC1CN1CCCN(c2csc3cc(F)ccc23)CC1 (racemic) [compound 830398]
Ki [2]: 0.0159 µM

Cc1ccc(C(=O)NCC2CC2CN2CCCN(c3csc4cc(F)ccc34)CC2)cc1 (racemic) [compound 830403]
Ki [2]: 0.0599 µM

O=C(NCC1CC1CN1CCCN(c2csc3cc(F)ccc23)CC1)c1ccc(C(F)(F)F)cc1 (racemic) [compound 830404]
Ki [2]: 0.0519 µM

COc1ccc(C(=O)NCC2CC2CN2CCCN(c3csc4cc(F)ccc34)CC2)cc1 (racemic) [compound 830405]
Ki [2]: 0.00165 µM

O=C(NCC1CC1CN1CCCN(c2csc3cc(F)ccc23)CC1)c1ccc(-c2ccccc2)cc1 (racemic) [compound 830406]
Ki [2]: 0.027 µM

O=C(NCC1CC1CN1CCCN(c2csc3cc(F)ccc23)CC1)c1cc2ccccc2s1 (racemic) [compound 830407]
Ki [2]: 0.0104 µM

O=S(=O)(NC[C@@H]1C[C@H]1CN1CCN(c2csc3cc(C(F)(F)F)ccc23)CC1)c1ccc(F)cc1 (racemic) [compound 831495, 4-Fluoro-N-{2R-[4-(6-trifluoromethyl-benzo[b]thiophen-3-yl)-piperazin-1-ylmenthyl]-1R-cyclopropylmethyl}-benzenesulfonamide]
Ki [3]: 0.0351 µM

CC(C)(C)c1ccc(S(=O)(=O)NCC2CC2CN2CCN(c3csc4cc(C(F)(F)F)ccc34)CC2)cc1 (racemic) [compound 831591]
Ki [3]: 0.0933 µM

COc1ccc(CNCC2CC2CN2CCN(c3csc4cc(C(F)(F)F)ccc34)CC2)cc1 (racemic) [compound 831909]
Ki [1]: 0.0415 µM

FC(F)(F)Oc1cccc(CNCC2CC2CN2CCN(c3csc4cc(C(F)(F)F)ccc34)CC2)c1 (racemic) [compound 832181]
Ki [1]: 0.016 µM

CC(C)c1ccc(CNCC2CC2CN2CCN(c3csc4cc(C(F)(F)F)ccc34)CC2)cc1 (racemic) [compound 832182]
Ki [1]: 0.098 µM

FC(F)(F)c1ccc2c(N3CCN(CC4CC4CN4CCC(N5CCCC5)CC4)CC3)csc2c1 (racemic) [compound 832568]
Ki [1]: 0.0462 µM

O=C1NCCN1CCNCC1CC1CN1CCN(c2csc3cc(C(F)(F)F)ccc23)CC1 (racemic) [compound 832609]
Ki [1]: 0.0396 µM

Cc1nc(Cl)c(Cl)n1CCCNCC1CC1CN1CCN(c2csc3cc(C(F)(F)F)ccc23)CC1 (racemic) [compound 832644]
Ki [1]: 0.0975 µM

FC(F)(F)c1ccc2c(N3CCN(CC4CC4CNCCCN4CCCCC4)CC3)csc2c1 (racemic) [compound 832659]
Ki [1]: 0.0283 µM

O=C(NCC(CO)CCN1CCN(c2csc3cc(C(F)(F)F)ccc23)CC1)c1cccc(C(=O)c2ccccc2)c1 (single isomer, unassigned) [818912ES]
Ki (Table 2, read-out: D3K1): 0.249 µM

O=C(NCCCCN1CCN(c2csc3cc(C(F)(F)F)ccc23)CC1)c1cccs1 [81708A]
Ki (read-out: D3K1): 0.0045 µM

O=C(NCc1sccc1CN1CCN(c2csc3cc(F)ccc23)CC1)c1ccc(-c2ccccn2)s1 [818320G]
Ki [4]: 0.0112 µM

O=C(NCc1sccc1CN1CCN(c2csc3cc(F)ccc23)CC1)c1cc2ccccc2s1 [818321G]
Ki [4]: 0.0787 µM

O=C(NCCC(CO)CN1CCN(c2csc3cc(C(F)(F)F)ccc23)CC1)c1ccc2ccccc2c1 (stereo not shown) [818619ES]
Ki (Table 2, read-out: D3K1): 0.324 µM

O=C(NCCC(CO)CN1CCN(c2csc3cc(C(F)(F)F)ccc23)CC1)c1ccc2[nH]ccc2c1 (stereo not shown) [818620ES]
Ki (Table 2, read-out: D3K1): 0.246 µM

Cc1c(C(=O)NCCC(CO)CN2CCN(c3csc4cc(C(F)(F)F)ccc34)CC2)cnn1-c1ccccc1 (stereo not shown) [818634ES]
Ki (Table 2, read-out: D3K1): 0.305 µM

Cc1ccc(C(=O)NCC(CO)CCN2CCN(c3csc4cc(C(F)(F)F)ccc34)CC2)cc1 (stereo not shown) [818921ES]
Ki (Table 2, read-out: D3K1): 0.331 µM

O=C(NCC(CO)CCN1CCN(c2csc3cc(C(F)(F)F)ccc23)CC1)c1c(F)cc(F)cc1F (stereo not shown) [818923ES]
Ki (Table 2, read-out: D3K1): 0.319 µM

O=C(NCC(CO)CCN1CCN(c2csc3cc(C(F)(F)F)ccc23)CC1)c1ccco1 (stereo not shown) [818924ES]
Ki (Table 2, read-out: D3K1): 0.318 µM

O=C(NCC(CO)CCN1CCN(c2csc3cc(C(F)(F)F)ccc23)CC1)c1ccoc1 (stereo not shown) [818925ES]
Ki (Table 2, read-out: D3K1): 0.293 µM

O=C(NCC(CO)CCN1CCN(c2csc3cc(C(F)(F)F)ccc23)CC1)c1cccs1 (stereo not shown) [818926ES]
Ki (Table 2, read-out: D3K1): 0.206 µM

O=C(NCC(CO)CCN1CCN(c2csc3cc(C(F)(F)F)ccc23)CC1)c1ccsc1 (stereo not shown) [818927ES]
Ki (Table 2, read-out: D3K1): 0.164 µM

O=C(NCC(CO)CCN1CCN(c2csc3cc(C(F)(F)F)ccc23)CC1)c1cn[nH]c1 (stereo not shown) [818928ES]
Ki (Table 2, read-out: D3K1): 0.158 µM

O=C(NCC(CO)CCN1CCN(c2csc3cc(C(F)(F)F)ccc23)CC1)c1ccc2ccccc2c1 (stereo not shown) [818929ES]
Ki (Table 2, read-out: D3K1): 0.201 µM

O=C(NCC(CO)CCN1CCN(c2csc3cc(C(F)(F)F)ccc23)CC1)c1cc2ccccc2[nH]1 (stereo not shown) [818930ES]
Ki (Table 2, read-out: D3K1): 0.0793 µM

O=C(NCC(CO)CCN1CCN(c2csc3cc(C(F)(F)F)ccc23)CC1)c1ccc2[nH]ccc2c1 (stereo not shown) [818931ES]
Ki (Table 2, read-out: D3K1): 0.0972 µM

O=C(NCC(CO)CCN1CCN(c2csc3cc(C(F)(F)F)ccc23)CC1)c1cc2ccccc2o1 (stereo not shown) [818932ES]
Ki (Table 2, read-out: D3K1): 0.207 µM

CC1=C(C(=O)NCC(CO)CCN2CCN(c3csc4cc(C(F)(F)F)ccc34)CC2)Cc2ccccc21 (stereo not shown) [818934ES]
Ki (Table 2, read-out: D3K1): 0.218 µM

O=C(NCC(CO)CCN1CCN(c2csc3cc(C(F)(F)F)ccc23)CC1)c1n[nH]c2ccccc12 (stereo not shown) [818935ES]
Ki (Table 2, read-out: D3K1): 0.244 µM

O=C(NCC(CO)CCN1CCN(c2csc3cc(C(F)(F)F)ccc23)CC1)c1ccc2ncccc2c1 (stereo not shown) [818938ES]
Ki (Table 2, read-out: D3K1): 0.141 µM

O=C(NCC(CO)CCN1CCN(c2csc3cc(C(F)(F)F)ccc23)CC1)c1ccncc1 (stereo not shown) [818940ES]
Ki (Table 2, read-out: D3K1): 0.307 µM
